“Also recorded” adds a separate entry of the source. Marks after values point to notes of the source that are not given here.
Assays:
[1] = system: arachidonic acid (AA) cascade; experiment: plasma oxylipin/PG levels in LPS induced sepsis in mice;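 note: male C57BL/6N mice given LPS, plasma oxylipins quantified by LC-MS after solid-phase extraction, pretreatment or vehicle given intraperitoneally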; format: in vivo, C57BL/6N mice; conditions: mice, 24 h after LPS, vs. LPS group
Description: (§3) Twelve week old male C57BL/6N mice (Charles River, Sulzfeld, Germany) were used for all experiments. C57BL/6 male mice (H2^b, 11–13 weeks of age) were obtained from Charles River (Sulzfeld, Germany). Animals were cared for in accordance with the institution’s guidelines for experimental animals and with the guidelines of the American Physiological Society. […] Mice were monitored closely and if they appeared compromised (i.e. inactivity, no intake of food or water) after compound or LPS injection the experiment was terminated.
(§4) Oxylipin levels were analyzed in plasma and tissues by LC-MS following SPE extraction of 200 μl plasma or tissue homogenate (50 mg) on Chromabond C18 ec cartridges (Machery-Nagel, Düren, Germany) [19].
(§5) GraphPad Prism 5.0 (GraphPad Software, San Diego, USA) was used for data analysis, the fitting of dose response curves and calculation of the IC50 values. Statistical differences were determined by Dunnetts test (LPS vs. other groups).

[2] = clinical chemistry in plasma (urea, creatinine, AST, ALT, LDH) in LPS induced sepsis in mice; format: in vivo, C57BL/6N mice; conditions: compound i. p. 100 mg/kg bw 2 h before LPS, 24 h after LPS
[3] = system: MCP–1; experiment: kidney MCP–1 mRNA (qPCR) in LPS induced sepsis in mice; format: in vivo, C57BL/6N mice; conditions: compound i. p. 100 mg/kg bw 2 h before LPS, 24 h after LPS, vs. LPS group
Description: (§1) Samples were stored at -80°C till further analysis. […] Plasma was generated by centrifugation at 4000 g at 4°C and stored at -80°C till further analysis.
(§2) Tissue sections were stored in RNA-later immediately after organ retrieval. Total RNA was extracted using the RNeasy mini kit system (Qiagen, Hilden, Germany) and transcribed using Superscript II Reverse transcriptase (Invitrogen). Quantitative (q) PCR was performed on […] (Roche Diagnostics, Penzberg, Germany) using FastStart Sybr-Green chemistry. Gene-specific primers for IL–6 (Quantitec QT00098875, Qiagen) and MCP–1 (Quantitec QT00167832, Qiagen) were used for the gene of interest and HPRT served as house keeping gene for normalization (Quantitec QT00166768, Qigaen). Quantification was carried out using qgene software.

[4] = system: IL–6; experiment: kidney IL–6 mRNA (qPCR) in LPS induced sepsis in mice; format: in vivo, C57BL/6N mice; conditions: compound i. p. 100 mg/kg bw 2 h before LPS, 24 h after LPS
Description: as §1, §2

[5] = system: arachidonic acid (AA) cascade; experiment: kidney tissue oxylipin/PG levels in LPS induced sepsis in mice;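 note: male C57BL/6N mice challenged with LPS, kidney taken 24 h later, oxylipins quantified by LC-MS after solid-phase extraction of tissue homogenate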
Description: as §3, §4, §5

[6] = compound i. p. 100 mg/kg bw 2 h before LPS (10 mg/kg bw i. p.)
[7] = kidney tissue 24 h after LPS treatment, LPS +, mean
[8] = kidney tissue 24 h after LPS treatment, LPS +, mean, < = below LOQ
[9] = mice, compound i. p. 100 mg/kg bw 2 h before LPS, 24 h after LPS, vs. LPS group

With Cc1ccc(-c2cc(C(F)(F)F)nn2-c2ccc(S(N)(=O)=O)cc2)cc1 [celecoxib, reference compound] as the compound, how does the “plasma 6-keto-PGF1α level” value [1, 6] read?
The value was “below the limit of quantification; also recorded: decreased”.

What about the “plasma 13,14-dihydro-15-keto-PGE1 level” value [1, 6] of the same compound?
Its value is “below the limit of quantification; also recorded: decreased”.

What about the “plasma 13,14-dihydro-15-keto-PGF2α level” value [1, 6] of the same compound?
Its value is “massively decreased”.

And the “plasma PG levels (LPS induced PG increase)” value [1, 6]?
The value was “effectively attenuated; also recorded: reduced”.

And the “plasma PGE2 level” value [1, 6]?
Its value is “massively decreased”.

What about the “plasma PGF2α level” value [1, 6] of the same compound?
Its value is “below the limit of quantification”.

What about the “plasma epoxy- and dihydroxy-fatty acid (FA) metabolites of the CYP pathway” value ([1]; compound i. p. 100 mg/kg bw 2 h before LPS) of the same compound?
The value was “decreased”.

What about the “plasma ALT activity” value [2] of the same compound?
The value was “elevated; also recorded: moderate elevation”.

And the “plasma AST activity” value [2]?
The value was “elevated; also recorded: moderate elevation”.

And the “plasma LDH activity” value [2]?
Its value is “moderate elevation”.

What about the plasma creatinine level [2] of the same compound?
The plasma creatinine level was “elevation”.

And the plasma urea level [2]?
Its plasma urea level is “elevation”.

What about the “kidney MCP–1 mRNA levels” value [3] of the same compound?
The value was “did not affect”.

What about the “further increase of kidney IL–6 mRNA expression in comparison to LPS group” value [4] of the same compound?
The value was 9 fold.

And the “1a,1b-dihomo-PGF2α” value [5, 7]?
The value was 0.54^* nM.

What about the “4,5-DiHDPE” value [5, 7] of the same compound?
The value was 22^‡ nM.

What about the 4-HDHA [5, 7] of the same compound?
Its 4-HDHA is 21 nM.

What about the “5(6)-EpETrE” value [5, 7] of the same compound?
The value was 130^† nM.

And the “5,6-DiHETrE” value [5, 7]?
The value was 2.1^‡ nM.

What about the 5-HEPE [5, 7] of the same compound?
The 5-HEPE was 1.5^‡ nM.

What about the 5-HETE [5, 7] of the same compound?
Its 5-HETE is 16^‡ nM.

What about the 5-oxo-ETE [5, 7] of the same compound?
The 5-oxo-ETE was 31 nM.

And the 6-keto-PGF1α [5, 7]?
The 6-keto-PGF1α was 36 nM.

And the “7,8-DiHDPE” value [5, 7]?
The value was 1.9 nM.

What about the 7-HDHA [5, 7] of the same compound?
The 7-HDHA was 4.8^‡ nM.

And the “8(9)-EpETrE” value [5, 7]?
Its value is 30^† nM.

And the “8,9-DiHETrE” value [5, 7]?
The value was 1.7 nM.

What about the 8-HDHA [5, 7] of the same compound?
Its 8-HDHA is 24^‡ nM.

What about the 8-HETE [5, 7] of the same compound?
Its 8-HETE is 4.6 nM.

And the 8-iPF2a [5, 7]?
The 8-iPF2a was 1.2 nM.

And the “9(10)-EpOME” value [5, 7]?
The value was 160^* nM.

What about the “9(10)-Epoxystearic acid” value [5, 7] of the same compound?
Its value is 81^† nM.

And the “9,10,13-TriHOME” value [5, 7]?
Its value is 4.1 nM.

What about the “9,10-DiHODE” value [5, 7] of the same compound?
The value was 1.3 nM.

And the “9,10-DiHOME” value [5, 7]?
Its value is 17^* nM.

And the “9,10-Dihydroxystearic acid” value [5, 7]?
Its value is 58 nM.

And the “9,12,13-TriHOME” value [5, 7]?
The value was 24 nM.

And the 9-HETE [5, 7]?
Its 9-HETE is 4.0^* nM.

And the 9-HODE [5, 7]?
Its 9-HODE is 160 nM.

What about the 9-HOTrE [5, 7] of the same compound?
The 9-HOTrE was 4.3 nM.

And the 9-oxo-ODE [5, 7]?
The 9-oxo-ODE was 51 nM.

What about the “10(11)-EpDPE” value [5, 7] of the same compound?
The value was 70^‡ nM.

And the “10,11-DiHDPE” value [5, 7]?
Its value is 2.0 nM.

And the 10-HDHA [5, 7]?
The 10-HDHA was 4.3 nM.

And the “11(12)-EpETE” value [5, 7]?
The value was 3.5^* nM.

And the “11(12)-EpETrE” value [5, 7]?
The value was 77^† nM.

And the “11,12-DiHETrE” value [5, 7]?
Its value is 1.7^* nM.

What about the 11-HDHA [5, 7] of the same compound?
Its 11-HDHA is 6.6^* nM.

And the 11-HETE [5, 7]?
Its 11-HETE is 10 nM.

And the “12(13)-EpOME” value [5, 7]?
The value was 120^† nM.

And the “12,13-DiHOME” value [5, 7]?
The value was 28^† nM.

What about the 12-HEPE [5, 7] of the same compound?
Its 12-HEPE is 2.9 nM.

And the 12-HETE [5, 7]?
Its 12-HETE is 29 nM.

What about the “13(14)-EpDPE” value [5, 7] of the same compound?
Its value is 55^† nM.

What about the “13,14-DiHDPE” value [5, 7] of the same compound?
Its value is 1.5^‡ nM.

What about the “13,14-dihydro-15-keto-PGF2α” value [5, 7] of the same compound?
Its value is 0.72^† nM.

And the 13-HDHA [5, 7]?
Its 13-HDHA is 6.0 nM.

What about the 13-HODE [5, 7] of the same compound?
The 13-HODE was 140 nM.

And the 13-HOTrE [5, 7]?
Its 13-HOTrE is 5.2 nM.

What about the 13-oxo-ODE [5, 7] of the same compound?
Its 13-oxo-ODE is 9.2 nM.

What about the “14(15)-EpETE” value [5, 7] of the same compound?
Its value is 4.2^* nM.

And the “14(15)-EpETrE” value [5, 7]?
Its value is 57^† nM.

And the “14,15-DiHETE” value [5, 7]?
Its value is 0.34^‡ nM.

What about the “14,15-DiHETrE” value [5, 7] of the same compound?
The value was 3.3^‡ nM.

And the 14-HDHA [5, 7]?
Its 14-HDHA is 17 nM.

What about the “15(16)-EpODE” value [5, 7] of the same compound?
Its value is 55 nM.

And the “15(S)-HETrE” value [5, 7]?
The value was 4.0 nM.

What about the “15,16-DiHODE” value [5, 7] of the same compound?
The value was 21 nM.

What about the 15-HETE [5, 7] of the same compound?
Its 15-HETE is 19 nM.

What about the 15-oxo-ETE [5, 7] of the same compound?
Its 15-oxo-ETE is 8.4 nM.

And the “16(17)-EpDPE” value [5, 7]?
Its value is 52^‡ nM.

And the “16,17-DiHDPE” value [5, 7]?
The value was 2.8^‡ nM.

What about the 16-HDHA [5, 7] of the same compound?
The 16-HDHA was 6.1 nM.

And the “17,18-DiHETE” value [5, 7]?
Its value is 2.1^‡ nM.

What about the 18-HEPE [5, 7] of the same compound?
Its 18-HEPE is 1.3 nM.

And the “19(20)-EpDPE” value [5, 7]?
Its value is 78^* nM.

And the “19,20-DiHDPE” value [5, 7]?
The value was 29^‡ nM.

And the 20-HDHA [5, 7]?
The 20-HDHA was 18 nM.

And the 20-HEPE [5, 7]?
The 20-HEPE was 5.3 nM.

And the EKODE [5, 7]?
The EKODE was 41 nM.

And the PGD2 [5, 7]?
The PGD2 was 7.4 nM.

What about the PGE1 [5, 7] of the same compound?
Its PGE1 is 2.5 nM.

What about the PGE2 [5, 7] of the same compound?
Its PGE2 is 45 nM.

What about the PGF1α [5, 7] of the same compound?
Its PGF1α is 1.4^† nM.

What about the PGF2α [5, 7] of the same compound?
Its PGF2α is 15 nM.

What about the TXB2 [5, 7] of the same compound?
The TXB2 was 1.3 nM.

What about the 5-iPF2α [5, 8] of the same compound?
The 5-iPF2α was < 1.0 nM.

And the “8(9)-EpETE” value [5, 8]?
Its value is 2.4^* nM.

What about the “12,13-DiHODE” value [5, 8] of the same compound?
Its value is < 2.0 nM.

And the “13,14-dihydro-15-keto-PGE1” value [5, 8]?
Its value is < 0.1 nM.

What about the 20-HETE [5, 8] of the same compound?
The 20-HETE was < 2.7 nM.

What about the PGD1 [5, 8] of the same compound?
Its PGD1 is < 0.50 nM.

And the PGF2α ([5]; kidney tissue 24 h after LPS treatment, LPS +, mean, second listing of PGF2α (r9))?
Its PGF2α is 15 nM.

And the “kidney 13,14-dihydro-15-keto-PGE1 level” value [5, 9]?
Its value is “<LOQ”.

And the “kidney 13,14-dihydro-15-keto-PGE2α level” value [5, 9]?
The value was “lowered”.
